In patent publication US20260097133A1, “EPIGENETIC EDITING TOOL FOR TARGETING HEPATITIS B VIRUS GENE” (priority 2023, published 2026):

Key:
Format in all cases: cell-based
Conditions in all cases: sgRNA in GFP-negative cell population, day 14 after transfection of EPIREG
[1] = system: type D HBV X protein (HBx) reporter cell line; experiment: sgRNA lentiviral library screening, HBx reporter cell line (NGS reads in GFP-negative cells)
Excerpt: (§1) In this example, the type D HBV X protein (HBx), core antigen (HBcAg), and surface antigen (HBsAg) reporter cell lines were used for library screening. First, a sgRNA cell library of type D HBV gene was constructed using a reporter cell line according to the method described in example 1. The sgRNA library was packaged into lentivirus to obtain a sgRNA lentiviral library (carrying red fluorescence), the reporter cell line was infected with the lentiviral library, and the red fluorescence was sorted to obtain the sgRNA cell library. Each cell in this sorted cell library integrated a single sgRNA in the library while the cell itself carried a reporter sequence (carrying green fluorescence). The EPIREG tool described in example 2 (the amino acid sequence of the tool was SEQ ID NO: 1194) (carrying blue fluorescence) was transfected and delivered into a cell library carrying both sgRNA and reporter sequences. Red/green/blue fluorescent triple-positive cells were sorted using a flow cytometer and cultured long-term. The EPIREG transfected into the cells could work together with the sgRNA to silence GFP in the reporter. On the day 14 after transfection, the GFP-negative cell population in the cell library was sorted, the genomic DNA of the negative cell population was extracted for NGS sequencing. The sgRNAs with higher sequencing reads in the negative cell population were compared using the untreated cell library as a control reference, so as to obtain the candidate sgRNAs that could play an editing role corresponding to each reporter, respectively (the schematic diagram of this screening scheme is shown in FIG. 6, and the analysis method is referenced to the literature DOI: 10.1186/s13059-014-0554-4). The functionally validated sgRNAs for each reporter cell line are summarized in the following table (arranged by the starting position of the target sequence of each sgRNA).

[2] = system: type D HBV core antigen (HBcAg) reporter cell line; experiment: sgRNA lentiviral library screening, HBcAg reporter cell line (NGS reads in GFP-negative cells)
Excerpt: as §1

[3] = system: type D HBV surface antigen (HBsAg) reporter cell line; experiment: sgRNA lentiviral library screening, HBsAg reporter cell line (NGS reads in GFP-negative cells)
Excerpt: as §1

“1065 (guide TGGTCGGTCGGAACGGCAGA; listed as DNA, chemistry not fully specified) [compound 1065]” was tested, and the “Log2 FC” value [1] was 6.0793 and the “Log2 FC” value [2] was 2.8985.

With “498 (guide CGGGGAGTCCGCGTAAAGAG; listed as DNA, chemistry not fully specified) [compound 498]” the “Log2 FC” value [1] was 2.939.

With “762 (guide GGGCAACGGGGTAAAGGTTC; listed as DNA, chemistry not fully specified) [compound 762]” the “Log2 FC” value [1] was 4.8522.

With “81 (guide ACACGGTCCGGCAGATGAGA; listed as DNA, chemistry not fully specified) [compound 81]” the “Log2 FC” value [2] was 2.0776.

In the case of “121 (guide ACTACTGTTGTTAGACGACG; listed as DNA, chemistry not fully specified) [compound 121]”, the “Log2 FC” value [3] was 1.0553.

In the case of “357 (guide CATGACCAAGCCCCAGCCAG; listed as DNA, chemistry not fully specified) [compound 357]”, the “Log2 FC” value [1] was 6.2753 and the “Log2 FC” value [2] was 3.1523.

For “1132 (guide TTTACCCCGTTGCCCGGCAA; listed as DNA, chemistry not fully specified) [compound 1132]”, the “Log2 FC” value [1] was 4.252 and the “Log2 FC” value [2] was 2.1043.

For “671 (guide GCAGCACAGCCTAGCAGCCA; listed as DNA, chemistry not fully specified) [compound 671]”, the “Log2 FC” value [3] was 1.2918.

For “249 (guide ATGACCAAGCCCCAGCCAGT; listed as DNA, chemistry not fully specified) [compound 249]”, the “Log2 FC” value [1] was 5.9752 and the “Log2 FC” value [2] was 2.8648.

In the case of “327 (guide CACTGGCTGGGGCTTGGTCA; listed as DNA, chemistry not fully specified) [compound 327]”, the “Log2 FC” value [1] was 5.8386 and the “Log2 FC” value [2] was 1.8664.

For “270 (guide ATTTGCTGTGTTTGCTCTGA; listed as DNA, chemistry not fully specified) [compound 270]”, the “Log2 FC” value [3] was 1.397.

In the case of “74 (guide ACAATGCTCAGGAGACTCTA; listed as DNA, chemistry not fully specified) [compound 74]”, the “Log2 FC” value [2] was 2.1202.

“484 (guide CGCCGACGGGACGTAAACAA; listed as DNA, chemistry not fully specified) [compound 484]” was tested, and the “Log2 FC” value [1] was 3.3079.

For “981 (guide TCTAGAAGATCTCGTACTGA; listed as DNA, chemistry not fully specified) [compound 981]”, the “Log2 FC” value [2] was 2.1673.

With “1006 (guide TGACCAAGCCCCAGCCAGTG; listed as DNA, chemistry not fully specified) [compound 1006]” the “Log2 FC” value [1] was 7.0191 and the “Log2 FC” value [2] was 4.2194.

With “657 (guide GCAAACACTTGGCACAGACC; listed as DNA, chemistry not fully specified) [compound 657]” the “Log2 FC” value [1] was 3.2226 and the “Log2 FC” value [2] was 1.9192.

With “257 (guide ATGGGCCATCAGCGCGTGCG; listed as DNA, chemistry not fully specified) [compound 257]” the “Log2 FC” value [1] was 6.5564.

In the case of “120 (guide ACTACTAGGTCTCTAGATGC; chemistry not given here) [compound 120]”, the “Log2 FC” value [2] was 2.9841.

“872 (guide TAAAGACTGGGAGGAGTTGG; listed as DNA, chemistry not fully specified) [compound 872]” was tested, and the “Log2 FC” value [2] was 3.0933.

For “204 (guide AGGTTCCACGCACGCGCTGA; listed as DNA, chemistry not fully specified) [compound 204]”, the “Log2 FC” value [1] was 3.0712.

In the case of “591 (guide GAAGCGAAGTGCACACGGTC; listed as DNA, chemistry not fully specified) [compound 591]”, the “Log2 FC” value [1] was 5.7107 and the “Log2 FC” value [2] was 4.4134.

For “450 (guide CCTGCGGACGACCCTTCTCG; listed as DNA, chemistry not fully specified) [compound 450]”, the “Log2 FC” value [1] was 4.242.

For “305 (guide CACAGAAAGGCCTTGTAAGT; listed as DNA, chemistry not fully specified) [compound 305]”, the “Log2 FC” value [1] was 4.9316 and the “Log2 FC” value [2] was 2.1583.

“139 (guide AGACACCAAATACTCTATAA; listed as DNA, chemistry not fully specified) [compound 139]” was tested, and the “Log2 FC” value [2] was 2.8391.

For “735 (guide GGCACAGACCTGGCCGTTGC; listed as DNA, chemistry not fully specified) [compound 735]”, the “Log2 FC” value [1] was 4.08.

In the case of “200 (guide AGGTGCGCCCCGTGGTCGGT; listed as DNA, chemistry not fully specified) [compound 200]”, the “Log2 FC” value [1] was 7.535.

In the case of “39 (guide AACCCCCACTGGCTGGGGCT; listed as DNA, chemistry not fully specified) [compound 39]”, the “Log2 FC” value [2] was 3.4538.

“225 (guide ATACCGCCTCAGCTCTGTAT; listed as DNA, chemistry not fully specified) [compound 225]” was tested, and the “Log2 FC” value [2] was 3.966.

In the case of “841 (guide GTGAAAAAGTTGCATGGTGC; listed as DNA, chemistry not fully specified) [compound 841]”, the “Log2 FC” value [2] was 2.0112.

In the case of “750 (guide GGCTTCCCGATACAGAGCTG; listed as DNA, chemistry not fully specified) [compound 750]”, the “Log2 FC” value [2] was 4.6799.

For “612 (guide GACGCAACCCCCACTGGCTG; listed as DNA, chemistry not fully specified) [compound 612]”, the “Log2 FC” value [1] was 6.7125 and the “Log2 FC” value [2] was 2.8035.

For “70 (guide ACAAGAGTTGCCTGAACTTT; listed as DNA, chemistry not fully specified) [compound 70]”, the “Log2 FC” value [2] was 2.5329.

For “197 (guide AGGTCTGGAGCAAACATTAT; chemistry not given here) [compound 197]”, the “Log2 FC” value [1] was 3.6817.

For “335 (guide CAGATGAGAAGGCACAGACG; listed as DNA, chemistry not fully specified) [compound 335]”, the “Log2 FC” value [1] was 4.44.

In the case of “788 (guide GGGTTGCGTCAGCAAACACT; listed as DNA, chemistry not fully specified) [compound 788]”, the “Log2 FC” value [1] was 4.4031.

“1033 (guide TGCGAGCAAAACAAGCGGCT; listed as DNA, chemistry not fully specified) [compound 1033]” was tested, and the “Log2 FC” value [1] was 3.1795.

With “254 (guide ATGGATACGATGTATATTTG; listed as DNA, chemistry not fully specified) [compound 254]” the “Log2 FC” value [1] was 3.4564.

“451 (guide CCTGCTGCGAGCAAAACAAG; listed as DNA, chemistry not fully specified) [compound 451]” was tested, and the “Log2 FC” value [1] was 5.3958 and the “Log2 FC” value [2] was 2.9406.

“628 (guide GAGGTGAAGCGAAGTGCACA; listed as DNA, chemistry not fully specified) [compound 628]” was tested, and the “Log2 FC” value [2] was 3.2225.

With “958 (guide TCCTGCGGACGACCCTTCTC; listed as DNA, chemistry not fully specified) [compound 958]” the “Log2 FC” value [1] was 3.9999 and the “Log2 FC” value [2] was 3.1878.

With “1104 (guide TTCCCGATACAGAGCTGAGG; listed as DNA, chemistry not fully specified) [compound 1104]” the “Log2 FC” value [2] was 3.9205.

For “113 (guide ACGATGTATATTTGCGGGAG; listed as DNA, chemistry not fully specified) [compound 113]”, the “Log2 FC” value [2] was 2.0632.

For “560 (guide CTGTGCCTTGGGTGGCTTTG; listed as DNA, chemistry not fully specified) [compound 560]”, the “Log2 FC” value [2] was 2.7695.

In the case of “496 (guide CGGCTAGGAGTTCCGCAGTA; listed as DNA, chemistry not fully specified) [compound 496]”, the “Log2 FC” value [1] was 7.3529 and the “Log2 FC” value [2] was 2.9031.

With “1008 (guide TGACGCAACCCCCACTGGCT; listed as DNA, chemistry not fully specified) [compound 1008]” the “Log2 FC” value [1] was 4.9717 and the “Log2 FC” value [2] was 1.8835.

In the case of “553 (guide CTGGCCGTTGCCGGGCAACG; listed as DNA, chemistry not fully specified) [compound 553]”, the “Log2 FC” value [1] was 3.9905 and the “Log2 FC” value [2] was 2.4462.

With “427 (guide CCGCAGGATTCAGCGCCGAC; listed as DNA, chemistry not fully specified) [compound 427]” the “Log2 FC” value [2] was 3.4136.

With “650 (guide GATTGAATACATGCATACAA; listed as DNA, chemistry not fully specified) [compound 650]” the “Log2 FC” value [1] was 3.726.

In the case of “539 (guide CTGACGCAACCCCCACTGGC; listed as DNA, chemistry not fully specified) [compound 539]”, the “Log2 FC” value [1] was 3.1536.

“1068 (guide TGGTGAGGTGAACAATGCTC; listed as DNA, chemistry not fully specified) [compound 1068]” was tested, and the “Log2 FC” value [2] was 2.5736.
